The source of these data is ChEMBL document CHEMBL4699625, “Callyspongiolide Is a Potent Inhibitor of the Vacuolar ATPase” (J Nat Prod, 2020).

Calls of active or inactive are those of the source. The calls are words filed in the database; no cut-off is given here.

Experiment [1] deals with Jurkat. Description: Cytotoxicity against human Jurkat cells assessed as reduction in cell viability. Type of experiment: functional, cell-based.
The subject of experiment [2] is Saccharomyces cerevisiae. The experiment is described as follows: Antifungal activity against Saccharomyces cerevisiae W303 pdr5 deletion mutant assessed as reduction in microbial growth at 0.5 uM after 2 to 3 days. In kind it is functional, organism-based. The note with it: time day 2-3.
In experiment [3] the test system is Saccharomyces cerevisiae. Description: Growth inhibition of Saccharomyces cerevisiae W303 at 0.5 uM after 2 to 3 days in glycerol condition relative to control. The note with it: time day 2-3, read-out: GI. In kind it is functional.
Experiment [4] relates to Saccharomyces cerevisiae. The experiment is described as follows: Growth inhibition of Saccharomyces cerevisiae W303 pdr5 deletion mutant at 0.5 uM after 2 to 3 days in glycerol condition relative to control. Type of experiment: functional. The following applies: time day 2-3, read-out: GI.
For experiment [5], the system named is Saccharomyces cerevisiae. The experiment is described as follows: Growth inhibition of Saccharomyces cerevisiae W303 pdr5 deletion mutant at 0.5 uM after 2 to 3 days in ammonium iron(II) sulfate condition. In kind it is functional, organism-based. The note with it: time day 2-3.
Experiment [6] concerns Saccharomyces cerevisiae. Description: Growth inhibition of Saccharomyces cerevisiae W303 at 0.5 uM after 2 to 3 days in ammonium iron(II) sulfate condition. In kind it is functional, organism-based. The note with it: time day 2-3.
The subject of experiment [7] is Saccharomyces cerevisiae W303. Description: Inhibition of V-ATpase in Saccharomyces cerevisiae W303 assessed as quinacrine accumulation in the cytosol at 0.5 uM after 4 hrs by fluorescence microscopic method. Type of experiment: subcellular.
For experiment [8], the system named is Saccharomyces cerevisiae W303. The experiment is described as follows: Inhibition of V-ATpase in Saccharomyces cerevisiae W303 pdr5 deletion mutant assessed as quinacrine accumulation in the cytosol at 0.5 uM after 4 hrs by fluorescence microscopic method. In kind it is subcellular.
Experiment [9] relates to Saccharomyces cerevisiae. The experiment is described as follows: Inhibition of V-ATpase in Saccharomyces cerevisiae BY4742 vacuolar membranes at 100 nM after 10 mins by spectrophotometric based coupled enzyme assay relative to control. In kind it is cell membranes. The note with it: Membrane.
Experiment [10] can be described thus: Inhibition of V-ATpase in Saccharomyces cerevisiae […] vacuolar membranes after 10 mins by spectrophotometric based coupled enzyme assay. Type of experiment: cell membranes, Saccharomyces cerevisiae W303, Membrane.
Experiment [11] deals with Jurkat. Description: Cytotoxicity against human Jurkat cells assessed as reduction in cell viability in presence of pan-caspase inhibitor Z-VAD-FMK relative to control. In kind it is functional.
Experiment [12] concerns Saccharomyces cerevisiae. Description: Antifungal activity against Saccharomyces cerevisiae W303 assessed as reduction in microbial growth at 10 uM after 2 to 3 days. In kind it is functional, organism-based. The note with it: time day 2-3.
The test system of experiment [13] is Saccharomyces cerevisiae. Description: Growth inhibition of Saccharomyces cerevisiae W303 at 10 uM after 2 to 3 days in glycerol condition relative to control. In kind it is functional. The following applies: time day 2-3, read-out: GI.
Experiment [14] deals with Saccharomyces cerevisiae. The experiment is described as follows: Growth inhibition of Saccharomyces cerevisiae W303 pdr5 deletion mutant at 10 uM after 2 to 3 days in glycerol condition relative to control. Type of experiment: functional. The following applies: time day 2-3, read-out: GI.
In experiment [15] the test system is Saccharomyces cerevisiae. Description: Growth inhibition of Saccharomyces cerevisiae W303 pdr5 deletion mutant at 10 uM after 2 to 3 days in ammonium iron(II) sulfate condition. Type of experiment: functional, organism-based. The following applies: time day 2-3.
Experiment [16] deals with Saccharomyces cerevisiae. The experiment is described as follows: Growth inhibition of Saccharomyces cerevisiae W303 at 10 uM after 2 to 3 days in ammonium iron(II) sulfate condition. In kind it is functional, organism-based. The following applies: time day 2-3.
The test system of experiment [17] is Saccharomyces cerevisiae. Description: Growth inhibition of Saccharomyces cerevisiae W303 pdr5 deletion mutant at 0.5 to 10 uM after 2 to 3 days at pH 5 condition. The following applies: dose microM 0.5-10, time day 2-3. In kind it is functional, organism-based.
Experiment [18] relates to Saccharomyces cerevisiae. The experiment is described as follows: Growth inhibition of Saccharomyces cerevisiae W303 at 0.5 to 10 uM after 2 to 3 days at pH 5 condition. In kind it is functional, organism-based. The note with it: dose microM 0.5-10, time day 2-3.
In experiment [19] the test system is Saccharomyces cerevisiae. Description: Growth inhibition of Saccharomyces cerevisiae W303 pdr5 deletion mutant at 0.5 to 10 uM after 2 to 3 days at pH 7.5 condition. In kind it is functional, organism-based. The following applies: dose microM 0.5-10, time day 2-3.
In experiment [20] the test system is Saccharomyces cerevisiae. The experiment is described as follows: Growth inhibition of Saccharomyces cerevisiae W303 at 0.5 to 10 uM after 2 to 3 days at pH 7.5 condition. The following applies: dose microM 0.5-10, time day 2-3. In kind it is functional, organism-based.
The test system of experiment [21] is Saccharomyces cerevisiae W303. The experiment is described as follows: Inhibition of V-ATpase in Saccharomyces cerevisiae W303 assessed as quinacrine accumulation in the cytosol at 10 uM after 4 hrs by fluorescence microscopic method. In kind it is subcellular.
The test system of experiment [22] is Saccharomyces cerevisiae W303. Description: Inhibition of V-ATpase in Saccharomyces cerevisiae W303 pdr5 deletion mutant assessed as quinacrine accumulation in the cytosol at 10 uM after 4 hrs by fluorescence microscopic method. In kind it is subcellular.
The subject of experiment [23] is Saccharomyces cerevisiae W303. The experiment is described as follows: Inhibition of V-ATpase in Saccharomyces cerevisiae […] vacuolar membranes at 80 nM after 10 mins by spectrophotometric based coupled enzyme assay. Type of experiment: cell membranes. The following applies: Membrane.

Take `C[C@@H]1C/C=C/C(=O)O[C@H](/C=C/C#C/C=C/C(C)(C)[C@@H](O)c2cccc(O)c2Br)[C@@H](C)/C=C/[C@H](C)C[C@H](OC(N)=O)C1`: the IC50 in the experiment with Jurkat [1] came out at 115 nM.
With `C/C=C/[C@H]1O[C@@](O)([C@@H](C)[C@H](O)[C@H](C)[C@H]2OC(=O)/C(OC)=C/C(C)=C/[C@@H](C)[C@@H](O)[C@@H](CC)[C@@H](O)[C@H](C)C/C(C)=C/C=C/[C@@H]2OC)C[C@@H](O[C@H]2C[C@@H](O)[C@H](OC(N)=O)[C@@H](C)O2)[C@@H]1C` [CONCANAMYCIN A], the result in the experiment with Saccharomyces cerevisiae [2] was Active. Moreover, the inhibition of growth at 0.5 µM with Saccharomyces cerevisiae [3] and in the experiment with Saccharomyces cerevisiae [4] was 100% each time. Also, the “growth inhibition (GI)” value in the experiment on Saccharomyces cerevisiae [5] and in the experiment on Saccharomyces cerevisiae [6] was “inactive” in each case. The inhibition result in experiment [7] and in [8] was “Active” in each case. Besides, the inhibition with Saccharomyces cerevisiae [9] turned out to be 75%. In addition, half-maximal inhibition in experiment [10] (IC50) required 3 nM.
Regarding `C[C@@H]1C/C=C\C(=O)O[C@H](/C=C/C#C/C=C/C(C)(C)[C@@H](O)c2cccc(O)c2Br)[C@@H](C)/C=C/[C@H](C)C[C@H](OC(N)=O)C1`, the IC50 in the experiment on Jurkat [1] was 43 nM; in experiment [10], 9.91 nM. Also, the Activity in the experiment on Jurkat [11] is given as <3%. Also, the outcome in the experiment on Saccharomyces cerevisiae [12] and with Saccharomyces cerevisiae [2] was Active. For the same compound, the inhibition of growth at 10 µM in the experiment on Saccharomyces cerevisiae [13] and in the experiment with Saccharomyces cerevisiae [14] was 100% throughout. The “growth inhibition (GI)” value in the experiment with Saccharomyces cerevisiae [15] and in the experiment on Saccharomyces cerevisiae [16] was “inactive” in each case. Moreover, the “growth inhibition (GI)” value with Saccharomyces cerevisiae [17], in the experiment on Saccharomyces cerevisiae [18], with Saccharomyces cerevisiae [19] and in the experiment with Saccharomyces cerevisiae [20] was “Active” in each case. In addition, the inhibition entry in experiment [21], in experiment [22] and in experiment [23] was “Active” in each case.
As for `CO/C1=C\C(C)=C\[C@@H](C)[C@@H](O)[C@@H](C)C/C(C)=C/C=C/[C@H](OC)[C@@H]([C@@H](C)[C@@H](O)[C@H](C)[C@@]2(O)C[C@@H](O)[C@H](C)[C@@H](C(C)C)O2)OC1=O` [BAFILOMYCIN A1], the IC50 in [10] was 4 nM.

The term IC50 denotes the concentration that inhibits the measured activity by half. The term inhibition denotes the drop in the measured response relative to a control, in per cent.
